# What was measured:
# [1] = Cytotoxicity against human SH-SY5Y cells assessed as cell viability at 30 uM after 24 hrs by MTT assay relative to control; assay type: cell-based; conditions: read-out: Activity
# [2] = target: Tyrosine-protein kinase ABL1 (Homo sapiens) (UniProt P00519); assay: Inhibition of Abl (unknown origin) at 0.5 uM relative to control
# [3] = target: RAC-alpha serine/threonine-protein kinase (Homo sapiens) (UniProt P31749); assay: Inhibition of PKBalpha (unknown origin) at 0.5 uM relative to control
# [4] = target: Protein kinase C alpha type (Homo sapiens) (UniProt P17252); assay: Inhibition of PKCalpha (unknown origin) at 0.5 uM relative to control
# [5] = target: Insulin-like growth factor 1 receptor (Homo sapiens) (UniProt P08069); assay: Inhibition of IGF-1R (unknown origin) at 0.5 uM relative to control
# [6] = target: T1, Aurora kinase A (Homo sapiens) (UniProt O14965); assay: Inhibition of Aurora A (unknown origin) at 0.5 uM relative to control
# T1 sequence (whole entry): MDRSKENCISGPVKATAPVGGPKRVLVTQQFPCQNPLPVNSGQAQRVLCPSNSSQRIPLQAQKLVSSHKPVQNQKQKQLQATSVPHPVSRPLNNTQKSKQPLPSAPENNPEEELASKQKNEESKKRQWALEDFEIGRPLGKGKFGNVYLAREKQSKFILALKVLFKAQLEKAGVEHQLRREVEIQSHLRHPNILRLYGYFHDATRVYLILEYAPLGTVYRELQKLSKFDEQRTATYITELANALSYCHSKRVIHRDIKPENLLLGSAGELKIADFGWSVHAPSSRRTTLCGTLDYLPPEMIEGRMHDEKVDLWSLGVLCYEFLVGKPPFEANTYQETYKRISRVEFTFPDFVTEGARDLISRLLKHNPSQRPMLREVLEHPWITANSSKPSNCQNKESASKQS
# [7] = target: Insulin receptor (Homo sapiens) (UniProt P06213); assay: Inhibition of IR (unknown origin) at 0.5 uM relative to control
# Sequence of Insulin receptor (Homo sapiens) (P06213 28-758 limits assumed): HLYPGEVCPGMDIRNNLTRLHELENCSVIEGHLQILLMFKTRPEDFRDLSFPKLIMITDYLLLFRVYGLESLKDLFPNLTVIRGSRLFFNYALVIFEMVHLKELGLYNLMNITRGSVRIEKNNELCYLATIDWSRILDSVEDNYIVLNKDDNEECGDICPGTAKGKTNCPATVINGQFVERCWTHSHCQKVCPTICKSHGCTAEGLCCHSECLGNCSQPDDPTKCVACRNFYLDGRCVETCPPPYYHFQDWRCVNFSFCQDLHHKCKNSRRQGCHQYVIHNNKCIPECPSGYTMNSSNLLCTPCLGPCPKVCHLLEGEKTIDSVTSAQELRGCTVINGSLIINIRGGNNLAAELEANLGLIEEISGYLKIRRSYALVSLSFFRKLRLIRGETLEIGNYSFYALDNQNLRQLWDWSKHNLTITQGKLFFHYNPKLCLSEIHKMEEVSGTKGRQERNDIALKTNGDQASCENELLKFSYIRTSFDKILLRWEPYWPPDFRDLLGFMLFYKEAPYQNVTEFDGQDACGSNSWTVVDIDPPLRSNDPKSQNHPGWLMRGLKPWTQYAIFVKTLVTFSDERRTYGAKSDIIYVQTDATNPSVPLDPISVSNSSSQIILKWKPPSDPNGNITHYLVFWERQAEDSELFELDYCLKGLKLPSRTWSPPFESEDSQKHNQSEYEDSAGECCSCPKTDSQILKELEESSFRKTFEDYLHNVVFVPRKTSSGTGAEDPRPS
# Sequence of Insulin receptor (Homo sapiens) (P06213 763-1382 limits assumed): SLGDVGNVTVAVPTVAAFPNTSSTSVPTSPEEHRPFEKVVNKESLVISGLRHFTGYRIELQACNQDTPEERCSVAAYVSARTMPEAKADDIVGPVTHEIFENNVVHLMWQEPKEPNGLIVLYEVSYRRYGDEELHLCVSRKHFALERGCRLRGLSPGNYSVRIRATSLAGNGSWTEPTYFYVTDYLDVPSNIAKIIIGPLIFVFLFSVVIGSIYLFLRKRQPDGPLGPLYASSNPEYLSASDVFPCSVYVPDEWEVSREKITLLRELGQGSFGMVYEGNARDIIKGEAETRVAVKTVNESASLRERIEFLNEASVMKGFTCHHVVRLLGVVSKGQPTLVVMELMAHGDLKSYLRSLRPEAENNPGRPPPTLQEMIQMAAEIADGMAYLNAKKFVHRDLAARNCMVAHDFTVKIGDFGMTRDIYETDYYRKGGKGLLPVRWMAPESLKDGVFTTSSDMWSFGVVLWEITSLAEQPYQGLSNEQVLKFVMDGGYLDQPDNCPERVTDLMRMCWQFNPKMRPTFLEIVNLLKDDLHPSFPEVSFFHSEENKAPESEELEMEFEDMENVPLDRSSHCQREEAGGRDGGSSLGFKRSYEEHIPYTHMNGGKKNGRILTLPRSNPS
# [8] = target: Cyclin-dependent kinase 2 (Homo sapiens) (UniProt P24941); assay: Inhibition of CDK2 (unknown origin) at 0.5 uM relative to control
# [9] = target: Casein kinase I isoform alpha (Homo sapiens) (UniProt P48729); assay: Inhibition of CK1 (unknown origin) at 0.5 uM relative to control
# Sequence of Casein kinase I isoform alpha (Homo sapiens) (P48729 2-337 limits assumed): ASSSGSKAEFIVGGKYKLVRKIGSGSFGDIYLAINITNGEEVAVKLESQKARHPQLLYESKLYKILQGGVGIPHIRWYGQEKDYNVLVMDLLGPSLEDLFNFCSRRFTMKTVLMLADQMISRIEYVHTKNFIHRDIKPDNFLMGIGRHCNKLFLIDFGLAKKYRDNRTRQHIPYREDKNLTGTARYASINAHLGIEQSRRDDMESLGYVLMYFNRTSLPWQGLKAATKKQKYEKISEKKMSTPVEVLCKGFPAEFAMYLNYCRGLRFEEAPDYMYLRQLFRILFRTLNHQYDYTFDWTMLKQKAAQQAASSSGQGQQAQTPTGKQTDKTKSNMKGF
# [10] = target: Glycogen synthase kinase-3 beta (Homo sapiens) (UniProt P49841); assay: Inhibition of GSK3beta (unknown origin) at 0.5 uM relative to control
# [11] = target: Aurora kinase B (Homo sapiens) (UniProt Q96GD4); assay: Inhibition of Aurora B (unknown origin) at 0.5 uM relative to control
# Sequence of Aurora kinase B (Homo sapiens) (Q96GD4 whole entry): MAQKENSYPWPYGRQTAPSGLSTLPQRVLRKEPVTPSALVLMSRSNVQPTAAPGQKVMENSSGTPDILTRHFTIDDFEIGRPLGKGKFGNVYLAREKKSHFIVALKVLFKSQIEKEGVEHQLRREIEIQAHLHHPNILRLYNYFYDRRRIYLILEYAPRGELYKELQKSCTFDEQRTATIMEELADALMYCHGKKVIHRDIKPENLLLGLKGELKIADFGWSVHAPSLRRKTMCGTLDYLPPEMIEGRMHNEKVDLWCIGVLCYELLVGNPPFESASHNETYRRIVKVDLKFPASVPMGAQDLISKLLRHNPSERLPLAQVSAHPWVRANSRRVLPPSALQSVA
# [12] = target: Cyclin-dependent kinase 9 (Homo sapiens) (UniProt P50750); assay: Inhibition of CDK9 (unknown origin) at 0.5 uM relative to control
# Sequence of Cyclin-dependent kinase 9 (Homo sapiens) (P50750 whole entry): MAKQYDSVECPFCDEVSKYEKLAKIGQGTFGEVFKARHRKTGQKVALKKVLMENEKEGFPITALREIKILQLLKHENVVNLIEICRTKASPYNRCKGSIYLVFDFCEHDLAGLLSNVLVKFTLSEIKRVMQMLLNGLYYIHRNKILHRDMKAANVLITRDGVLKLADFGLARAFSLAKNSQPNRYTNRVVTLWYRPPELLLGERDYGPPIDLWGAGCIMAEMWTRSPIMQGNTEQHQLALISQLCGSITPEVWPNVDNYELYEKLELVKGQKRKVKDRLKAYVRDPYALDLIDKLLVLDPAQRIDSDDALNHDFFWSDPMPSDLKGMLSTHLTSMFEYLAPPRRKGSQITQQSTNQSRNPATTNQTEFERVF
# [13] = target: T2, Inhibitor of nuclear factor kappa-B kinase subunit beta (Homo sapiens) (UniProt O14920); assay: Inhibition of IKKbeta (unknown origin) at 0.5 uM relative to control
# T2 sequence (whole entry): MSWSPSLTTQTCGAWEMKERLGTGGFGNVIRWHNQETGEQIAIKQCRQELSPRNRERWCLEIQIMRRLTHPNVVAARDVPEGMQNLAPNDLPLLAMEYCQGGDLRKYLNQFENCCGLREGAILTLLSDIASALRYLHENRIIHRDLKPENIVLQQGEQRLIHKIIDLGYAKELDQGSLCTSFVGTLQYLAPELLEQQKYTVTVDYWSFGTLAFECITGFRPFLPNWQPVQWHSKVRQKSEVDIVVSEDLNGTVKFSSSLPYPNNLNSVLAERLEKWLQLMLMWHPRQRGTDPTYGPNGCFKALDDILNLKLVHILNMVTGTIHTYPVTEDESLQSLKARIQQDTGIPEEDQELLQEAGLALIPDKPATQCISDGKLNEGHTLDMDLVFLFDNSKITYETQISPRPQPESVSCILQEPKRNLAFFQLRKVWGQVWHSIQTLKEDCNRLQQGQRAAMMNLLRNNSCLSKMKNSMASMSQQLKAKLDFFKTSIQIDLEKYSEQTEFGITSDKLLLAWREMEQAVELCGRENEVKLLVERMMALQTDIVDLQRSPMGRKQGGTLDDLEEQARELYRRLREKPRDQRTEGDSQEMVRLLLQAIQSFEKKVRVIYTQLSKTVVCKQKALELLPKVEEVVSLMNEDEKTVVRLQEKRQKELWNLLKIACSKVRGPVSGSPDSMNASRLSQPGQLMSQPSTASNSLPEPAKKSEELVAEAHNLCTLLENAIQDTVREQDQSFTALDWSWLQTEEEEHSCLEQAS
# [14] = target: Vascular endothelial growth factor receptor 1 (Homo sapiens) (UniProt P17948); assay: Inhibition of VEGFR1 (unknown origin) at 0.5 uM relative to control
# Sequence of Vascular endothelial growth factor receptor 1 (Homo sapiens) (P17948 whole entry): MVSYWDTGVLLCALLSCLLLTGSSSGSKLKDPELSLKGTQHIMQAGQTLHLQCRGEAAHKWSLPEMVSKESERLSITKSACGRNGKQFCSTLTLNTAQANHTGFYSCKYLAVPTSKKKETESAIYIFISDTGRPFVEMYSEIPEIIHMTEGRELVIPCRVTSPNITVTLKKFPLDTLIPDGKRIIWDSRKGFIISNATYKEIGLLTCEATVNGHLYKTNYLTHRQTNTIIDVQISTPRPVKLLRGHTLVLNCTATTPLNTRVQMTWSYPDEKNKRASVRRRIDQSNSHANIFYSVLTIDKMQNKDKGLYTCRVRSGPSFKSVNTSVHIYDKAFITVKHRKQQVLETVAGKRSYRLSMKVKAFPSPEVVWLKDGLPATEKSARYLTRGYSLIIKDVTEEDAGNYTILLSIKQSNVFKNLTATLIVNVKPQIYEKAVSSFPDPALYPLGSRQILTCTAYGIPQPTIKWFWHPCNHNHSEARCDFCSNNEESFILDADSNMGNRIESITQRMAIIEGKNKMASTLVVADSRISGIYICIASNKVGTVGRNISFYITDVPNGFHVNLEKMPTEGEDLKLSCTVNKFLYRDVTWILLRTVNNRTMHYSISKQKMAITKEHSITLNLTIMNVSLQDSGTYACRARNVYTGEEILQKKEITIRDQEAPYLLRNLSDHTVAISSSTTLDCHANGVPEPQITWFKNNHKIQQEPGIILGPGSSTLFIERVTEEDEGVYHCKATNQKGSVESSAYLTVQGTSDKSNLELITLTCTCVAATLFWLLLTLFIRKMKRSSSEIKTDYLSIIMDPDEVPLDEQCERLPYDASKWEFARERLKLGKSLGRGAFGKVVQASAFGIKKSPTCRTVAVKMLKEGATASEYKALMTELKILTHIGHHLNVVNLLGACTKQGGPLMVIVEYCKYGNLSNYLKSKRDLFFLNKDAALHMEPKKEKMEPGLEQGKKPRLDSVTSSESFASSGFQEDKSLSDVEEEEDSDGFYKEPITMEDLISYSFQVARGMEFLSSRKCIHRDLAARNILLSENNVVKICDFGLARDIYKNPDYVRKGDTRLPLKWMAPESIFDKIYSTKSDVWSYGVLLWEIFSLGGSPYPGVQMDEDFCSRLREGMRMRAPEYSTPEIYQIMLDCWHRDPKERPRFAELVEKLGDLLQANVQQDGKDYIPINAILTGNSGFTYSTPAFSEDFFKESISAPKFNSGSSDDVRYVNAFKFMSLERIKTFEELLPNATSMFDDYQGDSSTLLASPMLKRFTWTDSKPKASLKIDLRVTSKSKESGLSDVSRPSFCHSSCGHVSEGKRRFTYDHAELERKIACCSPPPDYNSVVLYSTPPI
# [15] = target: AMP-activated protein kinase, AMPK (Homo sapiens) (UniProt P54646+O43741+P54619+Q9UGJ0+Q9Y478+Q13131+Q9UGI9); assay: Inhibition of AMPK (unknown origin) at 0.5 uM relative to control; assay type: protein-complex assay
# [16] = target: RAC-beta serine/threonine-protein kinase (Homo sapiens) (UniProt P31751); assay: Inhibition of PKBbeta (unknown origin) at 0.5 uM relative to control
# Sequence of Tyrosine-protein kinase ABL1 (Homo sapiens) (P00519 whole entry): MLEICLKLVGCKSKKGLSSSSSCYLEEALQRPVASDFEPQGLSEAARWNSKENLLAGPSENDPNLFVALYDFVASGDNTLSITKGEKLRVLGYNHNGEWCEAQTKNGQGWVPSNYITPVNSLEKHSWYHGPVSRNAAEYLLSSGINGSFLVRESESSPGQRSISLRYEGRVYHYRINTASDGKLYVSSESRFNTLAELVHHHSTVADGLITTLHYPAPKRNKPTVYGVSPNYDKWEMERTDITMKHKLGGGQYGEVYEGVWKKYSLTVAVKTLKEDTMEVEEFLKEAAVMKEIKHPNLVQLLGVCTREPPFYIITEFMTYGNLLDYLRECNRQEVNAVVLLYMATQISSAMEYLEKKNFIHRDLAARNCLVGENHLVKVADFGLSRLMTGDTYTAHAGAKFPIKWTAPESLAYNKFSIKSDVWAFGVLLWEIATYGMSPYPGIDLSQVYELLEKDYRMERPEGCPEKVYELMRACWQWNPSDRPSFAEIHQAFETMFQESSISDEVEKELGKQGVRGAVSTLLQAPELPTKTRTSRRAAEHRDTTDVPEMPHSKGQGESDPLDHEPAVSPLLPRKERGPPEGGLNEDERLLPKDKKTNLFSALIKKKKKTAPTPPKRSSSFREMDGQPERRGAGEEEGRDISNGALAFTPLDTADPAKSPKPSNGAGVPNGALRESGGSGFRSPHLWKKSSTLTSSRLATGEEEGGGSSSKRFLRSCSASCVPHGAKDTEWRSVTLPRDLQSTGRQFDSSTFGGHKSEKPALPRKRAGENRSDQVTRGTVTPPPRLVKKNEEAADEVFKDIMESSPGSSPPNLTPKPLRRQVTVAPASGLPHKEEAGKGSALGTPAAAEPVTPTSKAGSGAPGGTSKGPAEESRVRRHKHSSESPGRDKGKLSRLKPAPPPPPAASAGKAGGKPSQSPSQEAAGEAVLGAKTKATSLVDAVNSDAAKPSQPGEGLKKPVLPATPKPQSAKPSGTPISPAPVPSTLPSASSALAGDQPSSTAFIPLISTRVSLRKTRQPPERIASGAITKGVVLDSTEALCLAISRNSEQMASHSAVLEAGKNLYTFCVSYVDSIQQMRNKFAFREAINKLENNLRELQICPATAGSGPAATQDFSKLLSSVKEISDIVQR
SMILES,"viability at 24 h, 30 µM [1] [%]",other results
COc1ccc(S(=O)(=O)n2cc(-c3ccnc(N)n3)c3ccccc32)cc1OC,127,–
Nc1nccc(-c2cn(S(=O)(=O)c3ccc([N+](=O)[O-])cc3)c3ccc(Br)cc23)n1,59,–
Cc1noc(C)c1Cn1cc(-c2ccnc(N)n2)c2ccccc21,88.5,inhibition [2]: 6.3%; inhibition [3]: 10.9%; inhibition [4]: 36.9%; inhibition [5]: 0%; inhibition [6]: 0%; inhibition [7]: 17.7%; inhibition [8]: 0%; inhibition [9]: 22.7%; inhibition [10]: 6.1%; inhibition [11]: 10.1%; inhibition [12]: 14%; inhibition [13]: 3%; inhibition [14]: 13.5%; inhibition [15]: 9.5%; inhibition [16]: 0%
CC(=O)Nc1ccc(S(=O)(=O)n2cc(-c3ccnc(N)n3)c3cc(Br)ccc32)cc1,71.6,–
COc1ccc(Br)cc1S(=O)(=O)n1cc(-c2ccnc(N)n2)c2ccccc21,96.2,–
Nc1nccc(-c2cn(S(=O)(=O)c3ccc(Br)cc3)c3ccccc23)n1,91.4,–
Nc1nccc(-c2cn(S(=O)(=O)c3ccc(Cl)cc3Cl)c3ccccc23)n1,55.4,–
O=C1NC(c2c[nH]c3ccccc23)Nc2ccccc21 (stereo not drawn),83.1,–
Nc1nccc(-c2cn(S(=O)(=O)c3cc(C(F)(F)F)cc(C(F)(F)F)c3)c3ccc(Br)cc23)n1,76.4,–
Nc1nccc(-c2cn(S(=O)(=O)c3cccc(C(F)(F)F)c3)c3ccccc23)n1,76.1,–
Cc1cc(C)c(S(=O)(=O)n2cc(-c3ccnc(N)n3)c3cc(Br)ccc32)c(C)c1,109,–
CC(C)(C)c1ccc(S(=O)(=O)n2cc(-c3ccnc(N)n3)c3ccccc32)cc1,86.3,–
Nc1nccc(-c2cn(C(=O)c3ccccc3)c3ccccc23)n1,106,–
Nc1nccc(-c2cn(S(=O)(=O)c3ccc([N+](=O)[O-])cc3)c3ccccc23)n1,56,–
Nc1nccc(-c2cn(S(=O)(=O)c3ccc(OC(F)(F)F)cc3)c3ccc(Br)cc23)n1,74,–
CC(C)(C)c1ccc(S(=O)(=O)n2cc(-c3ccnc(N)n3)c3cc(Br)ccc32)cc1,109,–
Cc1c(C)c(C)c(S(=O)(=O)n2cc(-c3ccnc(N)n3)c3ccccc32)c(C)c1C,49,–
Nc1nccc(-c2cn(S(=O)(=O)c3ccc(C(F)(F)F)cc3)c3ccc(Br)cc23)n1,85,–
N#Cc1ccc(S(=O)(=O)n2cc(-c3ccnc(N)n3)c3ccccc32)cc1,110,–
Nc1nccc(-c2cn(S(=O)(=O)c3ccc(C(F)(F)F)cc3)c3ccccc23)n1,95.6,–
Nc1nccc(-c2cn(S(=O)(=O)c3ccc4c(c3)OCCO4)c3ccc(Br)cc23)n1,112,–
Nc1nccc(-c2cn(S(=O)(=O)c3cccc(C(F)(F)F)c3)c3ccc(Br)cc23)n1,38.8,–
Nc1nccc(-c2cn(S(=O)(=O)c3ccc4ccccc4c3)c3ccccc23)n1,61.6,–
COc1ccc(S(=O)(=O)n2cc(-c3ccnc(N)n3)c3cc(Br)ccc32)cc1,99,–

SMILES,"viability at 24 h, 30 µM [1] [%]",other results
Nc1nccc(-c2c[nH]c3ccc(Br)cc23)n1 [MERIDIANIN C],92.9,–
COc1ccc(S(=O)(=O)n2cc(-c3ccnc(N)n3)c3ccccc32)cc1,58.8,–
COCCn1cc(-c2ccnc(N)n2)c2cc(Br)ccc21,75.3,–
O=C1NC(c2c[nH]c3ccc(Br)cc23)Nc2ccccc21 (stereo not drawn),41.5,–
Nc1nccc(-c2cn(Cc3ccc(Cl)s3)c3ccccc23)n1,115,–
N#Cc1ccc(S(=O)(=O)n2cc(-c3ccnc(N)n3)c3cc(Br)ccc32)cc1,106,–
Nc1nccc(-c2cn(Cc3ccc(Cl)s3)c3ccc(Br)cc23)n1,24,–
Cc1c(C)c(C)c(S(=O)(=O)n2cc(-c3ccnc(N)n3)c3cc(Br)ccc32)c(C)c1C,107,–
Nc1nccc(-c2cn(CN3C(=O)c4ccccc4C3=O)c3ccccc23)n1,101,–
CN1CCN(C(=O)n2cc(-c3ccnc(N)n3)c3cc(Br)ccc32)CC1,91.8,–
COc1cccc(C(=O)n2cc(-c3ccnc(N)n3)c3ccccc32)c1,94.6,–
Nc1nccc(-c2cn(S(=O)(=O)c3ccc4c(c3)OCCO4)c3ccccc23)n1,59.4,–
Cc1ccsc1C(=O)n1cc(-c2ccnc(N)n2)c2ccccc21,82,–
Cc1cc(C)c(S(=O)(=O)n2cc(-c3ccnc(N)n3)c3ccccc32)c(C)c1,40,–
CCOc1ccccc1C(=O)n1cc(-c2ccnc(N)n2)c2ccccc21,46.6,–
O=c1[nH]c(-c2c[nH]c3ccc(I)cc23)nc2ccccc12,24,–
Nc1nccc(-c2cn(C(=O)N3CCOCC3)c3ccccc23)n1,97.3,–
CN1CCN(C(=O)n2cc(-c3ccnc(N)n3)c3ccccc32)CC1,82,–
Nc1nccc(-c2cn(Cc3c4ccccc4cc4ccccc34)c3ccc(Br)cc23)n1,79.8,–
Nc1nccc(-c2cn(Cc3c4ccccc4cc4ccccc34)c3ccccc23)n1,96,–
Nc1nccc(-c2cn(S(=O)(=O)c3ccc(F)cc3F)c3ccccc23)n1,99.1,–
Nc1nccc(-c2cn(S(=O)(=O)c3cc(C(F)(F)F)cc(C(F)(F)F)c3)c3ccccc23)n1,72.4,–
Cc1noc(C)c1Cn1cc(-c2ccnc(N)n2)c2cc(Br)ccc21,83.1,–
Nc1nccc(-c2cn(S(=O)(=O)c3ccc(I)cc3)c3ccccc23)n1,57.5,–

# — ChEMBL document CHEMBL3596148, “Meridianin derivatives as potent Dyrk1A inhibitors and neuroprotective agents” (Bioorg Med Chem Lett, 2015)
